Like-named read-outs stand apart in the source and are kept apart here.

Holding throughout (assay type): cell-based, human
Experiment [1] deals with TNF-alpha production by PBMC. The experiment is described as follows: TNF-alpha assay, LPS-stimulated PBMC, sandwich ELISA. On the procedure:
(§1) All reagents were dissolved in 0.5 ml dimethylsulfoxide (hereinafter referred as DMSO) and further diluted in culture medium before use for the following in vitro experiments. The commercially available culture medium consisted of RPMI-1640+10% foetal calf serum (FCS). Peripheral blood mononuclear cells (herein referred as PBMC), in response to stimulation by lipopolysaccharide (LPS), a gram-negative bacterial endotoxin, produce various […], in particular human TNF-alpha and II-1 beta. The inhibition of the activation of PBMC can be measured by the level of suppression of the production of TNF-alpha or IL-1 beta by PBMC in response to stimulation by LPS. Such inhibition measurement was performed as follows: PBMC were isolated from heparinized peripheral blood (Buffy coat) by density gradient centrifugation. LPS is then added to the PMBC suspension in complete medium (10^6 cells/ml) at a final concentration of 1 μg/ml. The compound to be tested was added at different dilution levels, and the cells were incubated at 37° C. for 72 hours. The supernatants were collected, and TNF-alpha or II-1 beta concentrations were measured with respectively an anti-TNF antibody or an anti-IL-1 beta antibody in a sandwich ELISA. The percent inhibition was calculated as: % inhibition=(pg/ml in sample−pg/ml min.)/(pg/ml max.−pg/ml min.)−1 wherein: min.: pg/ml in culture medium without test compound, and • max.: pg/ml in culture medium+LPS without test compound.

The test system of experiment [2] is IL-1 beta production by PBMC. The experiment is described as follows: IL-1 beta assay, LPS-stimulated PBMC, sandwich ELISA. On the procedure:
as §1
(In general: An ELISA detects its analyte on a solid surface through an enzyme-linked reagent.)

Experiment [3] has as its system peripheral blood mononuclear cells (PBMC). Kind of experiment: Mixed lymphocyte reaction (MLR) test. On the procedure: All reagents were dissolved in 0.5 ml dimethylsulfoxide (hereinafter referred as DMSO) and further diluted in culture medium before use for the following in vitro experiments. The commercially available culture medium consisted of RPMI-1640+10% foetal calf serum (FCS). Peripheral blood mononuclear cells (hereinafter referred as PBMC) were isolated from heparinized peripheral blood by density gradient centrifugation over Lymphoprep (Nycomed, Maorstua, Norway). Allogeneic PBMC or […]-Barr Virus-transformed human B cells [commercially available under the trade name RPMI1788 (ATCC name CCL156)] which strongly express B7-1 and B7-2 antigens were used as stimulator cells after irradiation with 30 Gy. MLR was performed in triplicate wells. After 5 days incubation at 37° C., 1 μCi [^3H]-thymidine was added to each cup. After a further 16 hours incubation, cells were harvested and counted in a β-counter. Inhibition of proliferation by a compound (drug) described in some of the previous examples was counted using the formula: [formula] wherein cpm is the thymidine count per minute. TNF-Alpha and IL-1 Beta Assays

Where [4] appears, read: Table 7, same conditions as example 26, read-out: TNFα IC50.
Setting [5] is: Table 7, same conditions as example 26, read-out: IL1β IC50.
The mark [6] stands for this setting: Table 7, same conditions as example 26.

By IC50 is commonly meant the midpoint of a concentration-inhibition curve. For `COc1ccc(-c2nc3c(=O)n(C)c(=O)n(C)c3nc2Cl)cc1` [Example 76, 7-chloro-1,3-dimethyl-6-(4-methoxyphenyl)-lumazine], the values for the IC50 in experiment [1] (setting [4]), in experiment [2] (setting [5]) and in experiment [3] (setting [6]) were 0.6 µM, 0.6 µM and 4.5 µM, respectively.
`CC(=O)Nn1c(=O)c2nc(-c3ccccc3)c(Cl)nc2n(C)c1=O` [Example 69, 3-acetamido-7-chloro-1-methyl-6-phenyl-lumazine]: the half-maximal inhibitory concentration (IC50) came out at 5.8 µM in experiment [1] (setting [4]), 3.4 µM in experiment [2] (setting [5]) and 4.5 µM in experiment [3] (setting [6]).
For `COc1ccc(-c2nc3c(=O)[nH]c(=O)n(C)c3nc2Br)cc1OC` [Example 50, 7-bromo-6-(3,4-dimethoxyphenyl)-1-methyl-lumazine], in that order: 1 µM, 0.6 µM and 4 µM.
For `Cn1c(=O)c2nc(-c3ccccc3)c(Cl)nc2n(CCc2ccccc2)c1=O` [Example 60, 7-chloro-1-(2-phenylethyl)-3-methyl-6-phenyl-lumazine], in that order: 5.8 µM, 4.1 µM and 3.5 µM.
Regarding `CCOC(=O)CCCn1c(=O)c2nc(-c3ccccc3)c(Cl)nc2n(C)c1=O` [Example 55, 7-chloro-3-(ethyl butyrate)-1-methyl-6-phenyl-lumazine], the IC50 in experiment [1] (setting [4]) was determined as 0.5 µM; in experiment [2] (setting [5]) it was 0.6 µM; in experiment [3] (setting [6]) it was 4.9 µM.
For `Cn1c(=O)c2nc(-c3ccc(O)cc3)c(Br)nc2n(C)c1=O` [Example 84, 7-bromo-1,3-dimethyl-6-(4-hydroxyphenyl)-lumazine], in that order: 0.9 µM, 3.9 µM and 4.1 µM.
For `CCCNC(=O)CCCn1c(=O)c2nc(-c3ccccc3)c(Cl)nc2n(C)c1=O` [Example 92, 7-chloro-1-methyl-6-phenyl-3-(N-propyl 4-butyramido)-lumazine], in that order: 5.4 µM, 1.1 µM and 3.4 µM.
The corresponding values for `CCOC(=O)CCCn1c(=O)c2nc(-c3ccccc3)c(Cl)nc2n(CC)c1=O` [Example 68, 7-chloro-1-ethyl-3-(ethyl butyrate)-6-phenyl-lumazine] are 3.1 µM, 0.6 µM and 6.8 µM.
For `COc1ccc(-c2nc3c(=O)n(CCN4CCOCC4)c(=O)n(C)c3nc2Br)cc1OC` [Example 82, 7-bromo-1-methyl-3-(2-morpholinoethyl)-6-(3,4dimethoxyphenyl)-lumazine], the IC50 was determined as 10 µM in experiment [1] (setting [4]), 5.7 µM in experiment [2] (setting [5]) and 4.6 µM in experiment [3] (setting [6]).
For `Cn1c(=O)n(CCc2ccccc2)c(=O)c2nc(-c3ccccc3)c(Cl)nc21` [Example 58, 7-chloro-3-(2-phenylethyl)-1-methyl-6-phenyl-lumazine], in that order: 5.5 µM, 0.5 µM and 5.6 µM.
The corresponding values for `Cn1c(=O)n(CCN2CCOCC2)c(=O)c2nc(-c3ccccc3)c(Br)nc21` [Example 81, 7-bromo-1-methyl-3-(2-morpholinoethyl)-6-phenyl-lumazine] are 1.7 µM, 5.4 µM and 4.7 µM.
For `CCOC(=O)CCCCn1c(=O)c2nc(-c3ccccc3)c(Cl)nc2n(C)c1=O` [Example 72, 7-chloro-3-(ethyl pentanoate)-1-methyl-6-phenyl-lumazine], in that order: 3.4 µM, 0.6 µM and 3.5 µM.
With `O=c1[nH]c(=O)n(-c2ccccc2)c2nc(Cl)c(-c3ccccc3)nc12` [Example 17, 1,6-diphenyl-7-chloro-lumazine], the half-maximal inhibitory concentration (IC50) is 0.8 µM in experiment [1] (Table 2, LPS 1 μg/ml, 72 hours, read-out: TNF IC50); 0.2 µM in experiment [2] (Table 2, LPS 1 μg/ml, 72 hours, read-out: IL-1 IC50); 3 µM in experiment [3] (Table 2, [3H]-thymidine incorporation after 5 days incubation).
Take `COc1ccc(-c2nc3c(=O)[nH]c(=O)n(C)c3nc2Br)cc1` [Example 51, 7-bromo-6-(4-methoxyphenyl)-1-methyl-lumazine]: the half-maximal inhibitory concentration (IC50) in experiment [1] (setting [4]) stood at 4.6 µM; in experiment [2] (setting [5]), 5.7 µM; in experiment [3] (setting [6]), 3.6 µM.
Turning to `Cn1c(=O)n(CCCC(=O)O)c(=O)c2nc(-c3ccccc3)c(Cl)nc21` [Example 85, 7-chloro-3-(n-butyric acid)-1-methyl-6-phenyl-lumazine], the concentration for half-maximal inhibition (IC50) stood at 6.1 µM in experiment [1] (setting [4]), 3.9 µM in experiment [2] (setting [5]) and 5 µM in experiment [3] (setting [6]).
The corresponding values for `CCOC(=O)Cn1c(=O)c2nc(-c3ccccc3)c(Cl)nc2n(C)c1=O` [Example 71, 7-chloro-3-(ethyl acetate)-1-methyl-6-phenyl-lumazine] are 3.4 µM, 0.6 µM and 2.8 µM.
`COc1ccc(-c2nc3c(=O)[nH]c(=O)n(C)c3nc2Cl)cc1` [Example 40, 7-chloro-6-(4-methoxyphenyl)-1-methyl-lumazine]: the 50% inhibitory concentration (IC50) in experiment [1] (setting [4]) worked out at 0.8 µM; in experiment [2] (setting [5]) it was 0.6 µM; in experiment [3] (setting [6]), 3.3 µM.
For `CCOC(=O)CCCn1c(=O)c2nc(-c3ccc(OC)cc3)c(F)nc2n(C)c1=O` [Example 83, 3-(ethyl butyrate)-7-fluoro-1-methyl-6-(4-methoxyphenyl)-lumazine], the half-inhibitory concentration (IC50) in experiment [1] (setting [4]) turned out to be 4.9 µM; in experiment [2] (setting [5]), 6.4 µM; in experiment [3] (setting [6]) it was 4.5 µM.
Consider `CC(C)OC(=O)CCCn1c(=O)c2nc(-c3ccccc3)c(Cl)nc2n(C)c1=O` [Example 87, 7-chloro-3-(isopropyl 4-butyrate)-1-methyl-6-phenyl-lumazine], for which the IC50 in experiment [1] (setting [4]) was 6.1 µM; in experiment [2] (setting [5]) it was 2.8 µM; in experiment [3] (setting [6]), 5.4 µM.
On to “7-chloro-3-(chlorophenyl)-1-methyl-lumazine [Example 46]”, for which the values for the IC50 in experiment [1] (setting [4]), in experiment [2] (setting [5]) and in experiment [3] (setting [6]) were 4.7 µM, 0.9 µM and 5.7 µM, respectively.
The corresponding values for `Cn1c(=O)n(Cc2ccccc2)c(=O)c2nc(-c3ccccc3)c(Cl)nc21` [Example 59, 7-chloro-3-benzyl-1-methyl-6-phenyl-lumazine] are 5.3 µM, 0.5 µM and 5 µM.
The corresponding values for `Cn1c(=O)[nH]c(=O)c2nc(-c3ccccc3Cl)c(Cl)nc21` [Example 45, 7-chloro-(2-chlorophenyl)-1-methyl-lumazine] are 2.3 µM, 0.3 µM and 3.9 µM.
For `Cn1c(=O)n(CCN2CCCCC2)c(=O)c2nc(-c3ccccc3)c(Cl)nc21` [Example 77, 7-chloro-1-methyl-6-phenyl-3-(2-piperidinoethyl)-lumazine], in that order: 3.7 µM, 0.7 µM and 3.4 µM.
Consider `Cn1c(=O)n(CCCC(N)=O)c(=O)c2nc(-c3ccccc3)c(Cl)nc21` [Example 90, 3-(4-butyramido)-7-chloro-1-methyl6-phenyl-lumazine], for which the half-inhibitory concentration (IC50) was 4.9 µM in experiment [1] (setting [4]), 1.6 µM in experiment [2] (setting [5]) and 3.9 µM in experiment [3] (setting [6]).
The corresponding values for `COc1cccc(OC)c1-c1nc2c(=O)[nH]c(=O)n(C)c2nc1Cl` [Example 44, 7-chloro-(2,6-dimethoxyphenyl)-1-methyl-lumazine] are 5.9 µM, 0.5 µM and 4.9 µM.
In the case of `CCOC(=O)CCCn1c(=O)c2nc(-c3ccc(OC)c(OC)c3)c(Br)nc2n(C)c1=O` [Example 79, 7-bromo-6-(3,4-dimethoxyphenyl)-3-(ethylbutyrate)-1-methyl-lumazine], the values for the IC50 in experiment [1] (setting [4]), in experiment [2] (setting [5]) and in experiment [3] (setting [6]) were 0.7 µM, 0.2 µM and 4.7 µM, respectively.
On to `CCOC(=O)CCCn1c(=O)n(C)c(=O)c2nc(-c3ccccc3)c(Cl)nc21` [Example 56, 7-chloro-1-(ethyl butyrate)-3-methyl-6-phenyl-lumazine], for which the IC50 in experiment [1] (setting [4]) worked out at 0.5 µM; in experiment [2] (setting [5]), 0.6 µM; in experiment [3] (setting [6]), 4.9 µM.

The values above are taken from patent publication US20070043000A1, “Immunosuppresive effects of pteridine derivatives” (priority 2003, published 2007).
